Data on 22 compounds can be found in patent US9199983B2, “3-aryl-6-aryl-[1,2,4]triazolo[4,3-α]pyridines as inhibitors of cell proliferation and the use thereof” (priority 2010, dated 2015).

Structures can show the parent of a compound that is named as a salt.

Assay [1] concerns liver cancer cell line HepG2. The experiment in a line: MTT cancer cell cytotoxicity assay, HepG2. It is filed as cell-based, human. Conditions: Homo sapiens, HepG2 cells, 48-72 h. As to the method:
(§1) Identification of 3-(2-methoxyphenyl)-6-(4-methoxyphenyl)-[1,2,4]triazolo[4,3-a]pyridine and analogs as inhibitors of cell proliferation that were evaluated with standard MTT cancer cell cytotoxicity assay (IC50)
(§2) Human lung cancer cell line A549, breast cancer cell line T47D, liver cancer cell lines HepG2 and SMMC7721 as well as a mouse melanoma cell line B16F10 were used in the study. The cells were cultured in corresponding growth media recommended by American Type Culture Collection (ATCC) with the supplementation of penicillin G (100 U/ml)/streptomycin (100 µg/ml), and 10% fetal bovine serum (Hangzhou Sijiqing Biological Engineering Materials, Co., Ltd. China) at 37° C. in a humidified atmosphere containing 5% CO2. Cells at about 80% confluency were harvested by trypsinization. Cells were centrifuged, re-suspended in fresh growth media and counted. Corresponding numbers of cells were seeded to 96-well cell culture plates (HepG2 cell, T-47D and A549 cells at 3000 cells/well, SMMC-7721 cells at 5000 cells/well and B16F10 cells at 2000 cells/well) in a total volume of […]. Cells were incubated in CO2 incubator over night to allow the cells to attach. In next day, […] of medium containing testing (from 10 μM to 1 nM) or reference compounds was added to each well of the cells. Media without compound were used as 100% control. Cells were treated with each concentration of compounds in triplicates to ensure data accuracy. Cells were incubated with compounds in CO2 incubator for an additional 48-72 h at 37° C. After incubation, cells were removed from the CO2 incubator and […] of 5 mg/ml MTT (3-(4,5-dimethylthiazole-2-yl)-2,5-diphenyltetrazoliumbromide, Sigma) solution in PBS was added to each well. Cells were returned to CO2 incubator and incubated for additional 4 h. After the incubation, media were removed by aspiration and […] DMSO was added to each well. Plates were sealed with aluminum foil and shaked mildly on an orbital shaker for 10 min at room temperature. The absorption was measured at 550 nm with a plate reader (Varioskan Flash, Thermo Fisher Scientific) with 660 nm reading used as background control. The relative absorbance readings were calculated by subtracting readings at 660 nm from that at 550 nm. The relative absorbance was plotted again the concentrations of the testing compounds and the plots were fitted with a one-site lg(IC50) equation using Prism 5 software (GraphPad Software, Inc). The equation used in the curve fitting is as follows: relative absorbance reading=background reading+(maximal reading−brackground reading)/(1+10 ^(compound concentration-log IC50)). The background reading used in the calculation was obtained with 100% cell death using a reference anticancer drug, whereas the maximal reading was obtained in the well with no added compound. The IC50 value calculated from the equation represents the cytotoxic potency of a particular compound.

Assay [2] concerns breast cancer cell line T47D. The experiment in a line: MTT cancer cell cytotoxicity assay, T47D. It is filed as cell-based, human. Conditions: Homo sapiens, T47D cells, 48-72 h. As to the method:
as §1, §2

Assay [3] concerns liver cancer cell line SMMC7721. In words: MTT cancer cell cytotoxicity assay, SMMC7721. It is filed as cell-based, human. The note with it: Homo sapiens, SMMC-7721, SMMC7721 cells, 48-72 h. As to the method:
as §1, §2

The subject of assay [4] is Human lung cancer cell line A549. In words: MTT cancer cell cytotoxicity assay, A549. The format is cell-based. Conditions: Homo sapiens, A549 cells, 48-72 h. As to the method:
as §1, §2

Consider `COc1ccc(-c2ccc3nnc(-c4cccnc4OC)n3c2)cc1` [Example 86, 6-(4-Methoxyphenyl)-3-(2-methoxypyridin-3-yl)-[1,2,4]triazolo[4,3-a]pyridine], for which the IC50 worked out at 58 nM in assay [1], 40 nM in assay [2], 32 nM in assay [3] and 41 nM in assay [4].
In the same order, the values of `COc1ccccc1-c1nnc2ccc(-c3cccc(N)c3)cn12` [Example 45, 6-(3-Aminophenyl)-3-(2-methoxyphenyl)-[1,2,4]triazolo[4,3-a]pyridine hydrochloride] are 1250 nM, 678 nM, 829 nM and 2930 nM.
In the same order, the values of `COc1ccccc1-c1nnc2ccc(-c3ccc4c(c3)OCO4)cn12` [Example 14, 6-(Benzo[d][1,3]dioxol-5-yl)-3-(2-methoxyphenyl)-[1,2,4]triazolo[4,3-a]pyridine] are 797 nM, 1440 nM, 110 nM and 1270 nM.
The like results for `COc1ccc(-c2ccc3nnc(-c4ccccc4OC)n3c2)cc1OC` [Example 31, 6-(3,4-Dimethoxyphenyl)-3-(2-methoxyphenyl)-[1,2,4]triazolo[4,3-a]pyridine] were, in that order, 474 nM, 765 nM, 492 nM and 241 nM.
`COc1ccccc1-c1nnc2ccc(-c3ccc(C)c(N)c3)cn12` [Example 44, 6-(3-Amino-4-methylphenyl)-3-(2-methoxyphenyl)-[1,2,4]triazolo[4,3-a]pyridine]: the IC50 is 29 nM in assay [1], 48 nM in assay [2], 20 nM in assay [3] and 54 nM in assay [4].
In the same order, the values of `COc1ccccc1-c1nnc2ccc(-c3cccc(C)c3)cn12` [Example 23, 3-(2-Methoxyphenyl)-6-(3-methylphenyl)-[1,2,4]triazolo[4,3-a]pyridine] are 180 nM, 134 nM, 76 nM and 215 nM.
Turning to `CCOc1ccc(-c2ccc3nnc(-c4ccccc4OC)n3c2)cc1C` [Example 16, 6-(4-Ethoxy-3-methylphenyl)-3-(2-methoxyphenyl)-[1,2,4]triazolo[4,3-a]pyridine], the IC50 came out at 107 nM in assay [1], 152 nM in assay [2], 33 nM in assay [3] and 160 nM in assay [4].
In the case of `COc1ccc([N+](=O)[O-])cc1-c1nnc2ccc(-c3ccc(OC)c([N+](=O)[O-])c3)cn12` [Example 42, 6-(4-Methoxy-3-nitrophenyl)-3-(2-methoxy-5-nitrophenyl)-[1,2,4]triazolo[4,3-a]pyridine], the IC50 in assay [1] is 312 nM; in assay [2], 279 nM; in assay [3] it was 230 nM; in assay [4], 489 nM.
The like results for `CNc1ccccc1-c1nnc2ccc(-c3ccc(OC)cc3)cn12` [Example 79, 6-(4-Methoxyphenyl)-3-(2-methylaminophenyl)-[1,2,4]triazolo[4,3-a]pyridine] were, in that order, 122 nM, 73 nM, 69 nM and 167 nM.
In the same order, the values of `COc1ccc(-c2ccc3nnc(-c4ccccc4OC)n3c2)c(OC)c1` [Example 36, 6-(2,4-Dimethoxyphenyl)-3-(2-methoxyphenyl)-[1,2,4]triazolo[4,3-a]pyridine] are 78 nM, 315 nM, 29 nM and 74 nM.
The like results for `COc1ccccc1-c1nnc2ccc(-c3ccc(C)cc3)cn12` [Example 22, 3-(2-Methoxyphenyl)-6-(4-methylphenyl)-[1,2,4]triazolo[4,3-a]pyridine] were, in that order, 224 nM, 147 nM, 51 nM and 192 nM.
`COc1ccc(-c2ccc3nnc(-c4cccc(OC)c4OC)n3c2)cc1` [Example 73, 3-(2,3-Dimethoxyphenyl)-6-(4-methoxyphenyl)-[1,2,4]triazolo[4,3-a]pyridine]: the IC50 is 2350 nM in assay [1], 5320 nM in assay [2], 3210 nM in assay [3] and more than 10000 nM in assay [4].
In the same order, the values of `COc1cc(-c2ccc3nnc(-c4ccccc4OC)n3c2)ccc1OCc1ccccc1` [Example 9, 6-(4-Benzyloxy-3-methoxyphenyl)-3-(2-methoxyphenyl)-[1,2,4]triazolo[4,3-a]pyridine] are more than 10000 nM, more than 10000 nM, more than 10000 nM and more than 10000 nM.
In the same order, the values of `COc1ccccc1-c1nnc2ccc(-c3ccc(C)cc3F)cn12` [Example 4, 6-(2-Fluoro-4-methylphenyl)-3-(2-methoxyphenyl)-[1,2,4]triazolo[4,3-a]pyridine] are 246 nM, 326 nM, 80 nM and 276 nM.
In the same order, the values of `CCOc1ccccc1-c1nnc2ccc(-c3ccc(OC)cc3)cn12` [Example 74, 3-(2-Ethoxyphenyl)-6-(4-methoxyphenyl)-[1,2,4]triazolo[4,3-a]pyridine] are 141 nM, 151 nM, 38 nM and 146 nM.
As to `COc1ccc(-c2ccc3nnc(-c4ccc(OC)cc4)n3c2)cc1` [Example 64, 3,6-Bis(4-methoxyphenyl)-[1,2,4]triazolo[4,3-a]pyridine], the IC50 came out at 568 nM in assay [1], 341 nM in assay [2], 150 nM in assay [3] and 641 nM in assay [4].
In the same order, the values of `COc1ccc(-c2ccc3nnc(-c4cccc(OC)c4)n3c2)cc1` [Example 77, 3-(3-Methoxyphenyl)-6-(4-methoxyphenyl)-[1,2,4]triazolo[4,3-a]pyridine] are 2210 nM, 1950 nM, 962 nM and 4880 nM.
In the same order, the values of `COc1ccc(-c2ccc3nnc(-c4ccccc4OC(F)(F)F)n3c2)cc1` [Example 67, 6-(4-Methoxyphenyl)-3-(2-trifluoromethoxyphenyl)-[1,2,4]triazolo[4,3-a]pyridine] are 910 nM, 328 nM, 105 nM and 471 nM.
In the same order, the values of `COc1ccccc1-c1nnc2ccc(-c3ccc(OCc4ccccc4)c(C)c3)cn12` [Example 37, 6-(4-Benzyloxy-3-methylphenyl)-3-(2-methoxyphenyl)-[1,2,4]triazolo[4,3-a]pyridine] are 3560 nM, 9340 nM, 3340 nM and 7120 nM.
As to `COc1ccccc1-c1nnc2ccc(-c3ccc(C)c([N+](=O)[O-])c3)cn12` [Example 10, 3-(2-Methoxyphenyl)-6-(4-methyl-3-nitrophenyl)-[1,2,4]triazolo[4,3-a]pyridine], the IC50 is 382 nM in assay [1], 1370 nM in assay [2], 618 nM in assay [3] and more than 10000 nM in assay [4].
In the same order, the values of `COc1ccc(-c2ccc3nnc(-c4c(OC)cccc4OC)n3c2)cc1` [Example 61, 3-(2,6-Dimethoxyphenyl)-6-(4-methoxyphenyl)-[1,2,4]triazolo[4,3-a]pyridine] are 949 nM, 2920 nM, 258 nM and 2560 nM.
The like results for `COc1ccc(-c2ccc3nnc(-c4cc(OC)ccc4OC)n3c2)cc1` [Example 62, 3-(2,5-Dimethoxyphenyl)-6-(4-methoxyphenyl)-[1,2,4]triazolo[4,3-a]pyridine] were, in that order, 77 nM, 156 nM, 42 nM and 142 nM.
